Data as given in ChEMBL document CHEMBL5604062, “ASAP - ZIKV NS2B-NS3 protease fluorescence dose response” (2024).
Values joined by “and” are separate entries in the source; they are usually repeats but may differ in a detail not shown here. Equal values may be shown once.

Molecular target: Nonstructural protein 3 (Zika virus, UniProt A0A024AXB9)
Assay: Functional biochemical assay to identify treatments for viral infectious disease that targets Zika NS2B-NS3 protease. Utilizing a direct enzyme activity measurement method, reading the fluorescence intensity is used to characterize the relative potency of inhibitors as IC50.
Set-up: species or system PRVABC59

Nonstructural protein 3, sequence (A0A024AXB9 whole entry): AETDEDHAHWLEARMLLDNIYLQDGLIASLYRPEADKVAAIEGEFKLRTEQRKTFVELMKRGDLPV

SMILES	IC50
CCCC[C@H](N)C(=O)N[C@H](C(=O)NCc1ccc(C(N)=O)cc1)c1ccc(OCc2ccccc2)cc1	81 µM
O=C(Nc1cc(-c2cccnc2)ccn1)c1ccc(C2CC2)cc1	> 25 µM
CCCCCNC(=O)c1cc(Cl)ccc1NS(=O)(=O)c1ccc(Oc2ccccc2Cl)cc1	> 99.5 µM
O=C(N[C@H](C(=O)NCc1cccc(CO)c1)c1ccc(OCc2ccccc2)cc1)OCc1ccccc1	> 99.5 µM
NC[C@H]1CC[C@@H](NC(=O)c2cc(Cl)cc3[nH]ncc23)CC1	10.7 µM
O=C(Nc1ccc(F)nc1)Oc1ccccc1	> 100 µM
CNC(=O)c1cc(Cl)c(F)cc1NS(=O)(=O)c1ccc(Oc2ccccc2Cl)cc1	37.9 µM
N=C(N)NCCc1ccc(NC(=O)Oc2ccccc2)cc1	87.4 µM and 21.5 µM
CC(C)c1cc(Br)cc(C(=O)Nc2ccc3c(c2)CNC3)c1	0.393 µM
COc1c(Cl)cc(Cl)cc1C(=O)Nc1cccc(CN)c1	13.9 µM
O=C(NCc1cccnc1)[C@H](Nc1ccc2c(c1)CNC2)c1cc(Cl)cc2[nH]ncc12	0.122 µM
NC[C@H]1CC[C@H](CNC(=O)[C@@H](NC(=O)OCc2ccccc2)c2ccc(OCc3ccccc3)cc2)CC1	80.3 µM
O=Cc1ccc(N2CCC(C(=O)N3CCN(c4ccc([N+](=O)[O-])cc4C(F)(F)F)CC3)CC2)cc1	> 0.782 µM
Brc1ccsc1CSc1cnn[nH]1	> 99.5 µM
Cc1nnsc1CN1CCC([C@@H](NC(=O)OCc2ccccc2)C(=O)Nc2cccc(CN)c2)CC1	> 99.5 µM
Cc1ccc([C@H]2[C@H](C)CN2C(=O)c2ccc(C(F)(F)CN)cc2)cc1	> 99.5 µM
CCn1cc(-c2cccc(-c3ccccc3)c2)nc(N2CC[C@@H](CO)C2)c1=O	> 99.5 µM
NCc1cccc(NC(=O)c2cc(C3CCCCC3)nc3ccc(F)cc23)c1	> 99.5 µM
O=C(Nc1ccc2c(c1)CNC2)N1CC[C@H](CC(F)(F)F)C1	> 25 µM
NCc1cc(C(=O)N2CCOCC2)cc([C@@H]2C[C@H]2c2cc(Cl)cc(NC(=O)OCc3ccccc3)c2)c1	13.8 µM
O=C(Nc1ccc2c(c1)CNC2)c1cc(Cl)cc2[nH]c(-c3ncnn3C3CC3)nc12	0.312 µM
COc1c(C(N)=O)cc(Cl)cc1S(=O)(=O)Nc1cccc(-c2nnn[nH]2)c1	> 99.5 µM
CC(C)NC(=O)[C@H](Nc1ccc2c(c1)CNC2)c1cc(Cl)cc2[nH]c(-c3ccccc3)nc12	0.042 µM and 0.019 µM and 0.054 µM and 0.033 µM and 0.016 µM and 0.069 µM
O=C(NCCCF)[C@H](Nc1ccc2c(c1)CNC2)c1cc(Cl)cc(C2CC2)c1	0.059 µM and 0.033 µM

SMILES	IC50
O=C(Nc1ccc2c(c1)CNC2)c1cc(Cl)cc2[nH]ncc12	< 50 nM (2×) and 139 nM and 164 nM
O=C(Nc1ccc2c(c1)CNC2)c1cccc2ncccc12	3.4 µM
NCc1cc(C(=O)O)cc([C@@H]2C[C@H]2c2cc(Cl)cc(NC(=O)OCc3ccccc3)c2)c1	> 99.5 µM
Oc1cc(N2CCN(Cc3c[nH]c4ccccc34)CC2)ccn1	> 99.5 µM
O=C(O)c1cc(Cl)ccc1S(=O)(=O)Nc1ccc(F)c(N2CCNC2=O)c1	> 99.5 µM
NC(=O)c1cccnc1N1CCCN(c2nc(-c3cc(Cl)cc(Cl)c3)no2)CC1	> 99.5 µM
NCc1cccc(NC(=O)[C@@H]2C[C@@H]3CC[C@H]2N3C(=O)OCc2ccccc2)c1	> 99.5 µM
CN(C)CCc1ccc(CNC(=O)[C@@H](NC(=O)OCc2ccccc2)c2ccc(OCc3ccccc3)cc2)cc1	54.6 µM
O=C(NCC(F)F)[C@H](Nc1ccc2c(c1)CNC2)c1cccc2c1CCC2	3.62 µM
CC(C)(C)OC(=O)N1Cc2cc(NC(=O)c3cc(Cl)cc4[nH]ncc34)cc(Br)c2C1	16.4 µM
Cc1[nH]c2ccccc2c1CN1CCC(c2nc3ccccc3s2)CC1	2.89 µM
O=C(Nc1cc(-c2cccnc2)ccn1)c1cc(C2CC2)on1	> 25 µM
Cc1c(C(=O)Nc2cc(C(=O)N(C)[C@H]3C[C@H](O)C3)ccn2)cc(C2CC2)n1C	> 25 µM
O=C(Cn1ccnc(N2CC[C@H](CO)C2)c1=O)NCc1cc[nH]n1	> 99.5 µM
CN1CCc2nc(NC(=O)c3cc(Cl)cc(NC(=O)OCc4ccccc4)c3)sc2C1	> 99.5 µM
COCC=Cc1cccc([C@@H](NC(=O)OCc2ccccc2)C(=O)Nc2cccc(CN)c2)c1	26.8 µM
O=C(Nc1cc(Cl)cc(/C=C/c2cccc(-n3nn[nH]c3=O)c2)c1)OCc1ccccc1	> 99.5 µM
O=C(Nc1ccc2c(c1)CN[C@H]2CCO)c1cc(F)cc2[nH]ncc12	0.116 µM
CCn1cc(-c2cc(F)ccc2C)nc(N2CC[C@@H](CO)C2)c1=O	> 99.5 µM
NCc1cc(Br)cc(NC(=O)c2cc(Cl)cc(NC(=O)OCc3ccccc3)c2)c1	16.7 µM
O=C(NCC(F)F)[C@H](Nc1ccc2c(c1)CNC2)c1cc(F)cc2[nH]ccc12	0.199 µM
COc1cc(Br)cc(C(=O)Nc2ccc3c(c2)CNC3)c1	0.332 µM
COCCN(C)Cc1ccnc(NC(=O)c2cc(C3CC3)n(C)c2C)c1	> 25 µM
O=C(O)c1cc(Cl)ccc1NS(=O)(=O)c1ccc(OCc2cccnc2)cc1	> 99.5 µM

SMILES	IC50
NC[C@H]1C[C@H]1NC(=O)c1cc(Cl)cc(NC(=O)OCc2ccccc2)c1	> 99.5 µM
Cc1c(C(=O)Nc2cc(C(=O)Nc3cccnc3)ccn2)cc(C2CC2)n1C	> 25 µM
Cc1c(C(=O)Nc2cccc(Cn3ccccc3=O)c2)cc(C2CC2)n1C	> 25 µM
c1ccc2nc(SCc3cn4ccccc4n3)cnc2c1	> 99.5 µM
Cc1ccc(F)c(-c2ccc([C@@H](NC(=O)OCc3ccccc3)C(=O)Nc3cccc(CN)c3)cc2)c1	6.81 µM
O=C(O)c1cc(Cl)ccc1S(=O)(=O)Nc1ccc(-c2n[nH]c3c2CCCC3)cc1	> 99.5 µM
COc1ccc(-n2nnnc2SC(F)F)cc1	> 99.5 µM
CCCN1C(=O)[C@](Nc2ccc3c(c2)CNC3)(C(=O)NC)c2cc(Cl)ccc21	> 25 µM
COc1n[nH]cc1CN1CCC(c2nc3ccccc3s2)CC1	> 99.5 µM
NCc1cc(S(=O)(=O)Nc2ccc(Cl)cc2C(=O)O)ccc1Oc1ccccc1	> 99.5 µM
CCn1cc(-c2ccc3nn(C)cc3c2)nc(N2CC[C@@H](CO)C2)c1=O	> 99.5 µM
CCN1CCN(c2ccc(NC(=O)C3CCN(c4ccc(C=O)cc4)CC3)cc2)CC1	81.6 µM
O[C@@H]1CN(Cc2c[nH]c3ccccc23)C[C@H]1c1c[nH]c2ccccc12	> 99.5 µM
CCCN(C)C(=O)c1cc(Cl)ccc1NS(=O)(=O)c1ccc(Oc2ccccc2Cl)cc1	> 99.5 µM
C[C@H](CC(=O)O)NC(=O)c1cc(Cl)cc(NC(=O)OCc2ccccc2)c1	> 99.5 µM
N[C@H]1CCc2cc(NC(=O)c3cc(Cl)cc4[nH]ncc34)ccc21	5.21 µM
O=C(Nc1ccc2[nH]ncc2c1)c1cc(F)cc2[nH]ncc12	> 25 µM
O=C1Cc2c(cccc2C(=O)N[C@H]2C[C@H](c3ccon3)C2)N1	> 25 µM
O=Cc1ccc(N2CCC(C(=O)NC[C@H](O)c3ccc(O)c(O)c3)CC2)cc1	> 12.7 µM
CS(=O)(=O)N(c1cc(Cl)cc(C(=O)Nc2cccc(CN)c2)c1)S(C)(=O)=O	> 99.5 µM
NC1CCN(c2ccc(NC(=O)c3cc(Cl)cc(NC(=O)OCc4ccccc4)c3)cc2)CC1	7.28 µM
NCc1cccc(NC(=O)c2cc(C(F)(F)F)ccc2SC2CCCC2)c1	84.3 µM
COc1cc(C(=O)O)c(S(=O)(=O)Nc2ccc(Oc3ccccc3Cl)cc2)cc1F	91.6 µM
NCc1cccc(NC(=O)[C@@H](NC(=O)OCc2ccccc2)c2ccc(-c3cccc(F)c3)cc2)c1	7.19 µM and 6.8 µM

Continued, values first:

IC50	SMILES
5.83 µM	CCc1ccccc1-c1ccc([C@@H](NC(=O)OCc2ccccc2)C(=O)Nc2cccc(CN)c2)cc1
0.206 µM	O=C(Nc1ccc2c(c1)CNC2)c1cc(Br)cc2ccccc12
0.582 µM	N#Cc1c[nH]c2c(C(=O)Nc3ccc4c(c3)CNC4)cccc12
> 25 µM	O=C(Nc1ccc2c(c1)CNC2)C1(c2ccc(Cl)cc2)CCCC1
12.1 µM	N[C@H]1CCCc2ccc(NC(=O)c3cc(Cl)cc(NC(=O)OCc4ccccc4)c3)cc21
> 99.5 µM	N[C@H]1CCN(c2cccc(CNC(=O)c3ccc4[nH]c(=O)[nH]c4c3F)n2)C1
0.676 µM	CCNC(=O)Nc1cc(Cl)cc(C(=O)Nc2cc(C)cc(CN)c2)c1
> 99.5 µM	O=C(Nc1cc(Cl)cc(C(=O)NCC[C@H]2C[C@@H]2C(=O)O)c1)OCc1ccccc1
0.219 µM	CO[C@H]1C[C@H](n2cc3c(C(=O)Nc4ccc5c(c4)CNC5)cc(Cl)cc3n2)C1
> 99.5 µM	OC[C@H]1CCN(c2cnc3ccccc3n2)C1
> 99.5 µM	NCc1cccc(NC(=O)[C@H](NC(=O)C2CCC2)c2ccc(OCc3ccccc3)cc2)c1
43.1 µM	O=C(O)c1cc(Cl)ccc1NS(=O)(=O)c1ccc(-c2cscn2)cc1
> 99.5 µM	O=C(Nc1ccc(NS(=O)(=O)c2ccc(Cl)cc2C(=O)O)cc1)c1ccccc1
> 99.5 µM	c1ccc2c(CN3CCC(c4nn[nH]n4)CC3)c[nH]c2c1
> 99.5 µM	Cc1c(C(=O)Nc2cc(-c3ccccn3)c(Br)cn2)cc(C2CC2)n1C
> 99.5 µM	NC1CN(c2ccc(NS(=O)(=O)c3ccc(Oc4ccccc4Cl)cc3)cn2)C1

IC50	SMILES
> 99.5 µM	C[C@@H]1C[C@@H](C(=O)Nc2cccc(CN)c2)CCO1
16.4 µM	NCc1cccc(NC(=O)c2cccn3cc(CN4CCCC4)nc23)c1
> 25 µM	O=C(Nc1cc(-c2cccnc2)ccn1)c1cc(C2CC2)oc1C1CC1
> 99.5 µM	Cc1ocnc1COc1ccc(S(=O)(=O)Nc2ccc(Cl)cc2C(=O)O)cc1
> 99.5 µM	Cc1cnn(-c2cccc(-c3cccc(C4(CN)CC4)c3)c2)c1
5.56 µM	Cc1cc(C(=O)Nc2ccc3c(c2)CNC3)c2cnn(C)c2n1
> 99.5 µM	NCCOc1ccnc(NS(=O)(=O)c2ccc(Oc3ccccc3Cl)cc2)c1
98.1 µM	Cc1ncccc1-c1ccc([C@@H](NC(=O)OCc2ccccc2)C(=O)Nc2cccc(CN)c2)cc1
> 99.5 µM	c1cncc(C2CC(NCc3n[nH]c4ccccc34)C2)c1 (stereo not drawn)
> 25 µM	CC1(c2nc(C(=O)Nc3cc(-c4cccnc4)ccn3)no2)CC1
43.6 µM	Cc1ccc(S(=O)(=O)N2Cc3ccccc3C[C@@H](C(=O)Nc3cccc(CN)c3)C2)cc1
> 99.5 µM	CC[C@H]1CCN(c2nccn(CC)c2=O)C1
> 99.5 µM	CC(=O)N[C@@H](C(=O)Nc1cccc(CN)c1)c1ccc(OCc2ccccc2)cc1
> 99.5 µM	NCc1cccc(NC(=O)[C@H]2CCc3nnc(C4CC4)n3C2)c1
> 99.5 µM	O=C(O)c1cc(Cl)ccc1S(=O)(=O)NC1CCN(Cc2ccc(F)c(F)c2)CC1
